Measurements taken from patent US20240158352A1, “NOVEL ADAMANTYL DERIVATIVE OR PHARMACEUTICALLY ACCEPTABLE SALT THEREOF, AND USE THEREOF” (CAN-Therapy Inc., priority 2021, published 2024).

How the values were obtained:
[1] = tested on: A549, a human lung cancer cell line; assay: WST cell viability assay, A549; type: cell-based; settings: for IC50: 48 h, A549, human lung cancer, WST, read-out: Cell growth inhibition IC50
Protocol: (§1) After treating LLC, a mouse lung carcinoma cell line, and A549, a human lung cancer cell line, with KUgt-102 derivatives, cell viability was measured by water soluble tetrazolium (WST) cell viability assay.
(§2) The lung cancer cell lines LLC and A549 were attached to a 96-well plate at 5×10e^3 and 1×10e^4 cells/wells, respectively. The next day, the culture medium was removed, and they were added with new medium treated with the KUgt-102 derivative and evogliptin and saxagliptin, respectively, which have a structure similar to that of the derivative of the present disclosure known as a DPP4 inhibitor, as a positive control, in a concentration-dependent manner from 0.01 to 20 mM. Cells treated with the derivative and control group were cultured at 37° C. in 5% CO2. After 2 days, the cultured cells were treated with WST reagent (EZ-CYTOX, Dogen, Republic of Korea) at a final volume of 1:10 to analyze cell viability. Thereafter, the cultured plate was stored in an incubator at 37° C.
(§3) After culturing for 1 hour, the color change was measured at 450 nm using a microplate reader (SpectraMAX190, molecular Devices, CA, USA), and the measurement results are shown in FIGS. 2 and 3.

[2] = tested on: LLC, a mouse lung carcinoma cell line; assay: WST cell viability assay, LLC; type: cell-based; settings: 0.01 to 20 mM, 2 days; for IC50: 48 h, mouse lung carcinoma, WST, read-out: Cell growth inhibition IC50
Protocol: as §1, §2, §3

DPP4 (human recombinant) = target: T1, DPP4 (human recombinant) (Homo sapiens, UniProt P27487); assay: DPP4 screening assay (Abcam 133081 kit, Gly-Pro-AMC fluorescent substrate); type: biochemical; settings: FIG. 1; for DPP4 inhibitory activity: treated at 1 μM, 100 nM, 10 nM, 1 nM and 100 pM, 37° C., 30 minutes
T1 construct: purchased Abcam (Boston, USA) 133081
Protocol: DPP4 screening assay was performed to identify the DPP4 inhibitory activity of the adamantyl derivatives KUgt-102 and KUgt-103 of the present disclosure. Abcam (Boston, USA) 133081 was used as an assay kit, and Gly-Pro-Aminomethylcoumarin was used as a fluorescent substrate. That is, the fluorescence emitted from aminomethylcoumarin (AMC), which was freed by cleaving the peptide bond by DPP, was analyzed at an excitation wavelength of 350 to 360 nm and an emission wavelength of 450 to 465 nm to measure the DPP4 inhibitory activity.
More specifically, DPP Assay Buffer (10×) was dissolved in HPLC-grade pure water, thereby preparing 1× solution. 120 μl of DPP4 (human recombinant) contained in each glass vial was mixed with 480 μl of 1× assay buffer. 120 μl of Gly-Pro-AMC, in which 5 mM H-Gly-Pro was conjugated to AMC, was dissolved in 2.88 ml assay buffer to produce DPP substrate. As a positive control, vildagliptin and saxagliptin, which have a similar structure to the derivative of the present disclosure, known as DPP4 inhibitor, were dissolved in 500 μl of assay buffer to make 1 mM, and the result was used in the reaction. As an experimental group, 10 μl each of adamantyl derivatives KUgt-102 and KUgt-103 was used in the reaction. […] The reaction was repeated three times.
After the reaction, fluorescence was measured at an excitation wavelength of 350-360 nm and an emission wavelength of 450-465 nm using a fluorescence microplate reader (SPECTRA MAX Gemini EM, USA). Thereafter, the inhibitory activity was calculated as follows.

T1 sequence (P27487 whole entry): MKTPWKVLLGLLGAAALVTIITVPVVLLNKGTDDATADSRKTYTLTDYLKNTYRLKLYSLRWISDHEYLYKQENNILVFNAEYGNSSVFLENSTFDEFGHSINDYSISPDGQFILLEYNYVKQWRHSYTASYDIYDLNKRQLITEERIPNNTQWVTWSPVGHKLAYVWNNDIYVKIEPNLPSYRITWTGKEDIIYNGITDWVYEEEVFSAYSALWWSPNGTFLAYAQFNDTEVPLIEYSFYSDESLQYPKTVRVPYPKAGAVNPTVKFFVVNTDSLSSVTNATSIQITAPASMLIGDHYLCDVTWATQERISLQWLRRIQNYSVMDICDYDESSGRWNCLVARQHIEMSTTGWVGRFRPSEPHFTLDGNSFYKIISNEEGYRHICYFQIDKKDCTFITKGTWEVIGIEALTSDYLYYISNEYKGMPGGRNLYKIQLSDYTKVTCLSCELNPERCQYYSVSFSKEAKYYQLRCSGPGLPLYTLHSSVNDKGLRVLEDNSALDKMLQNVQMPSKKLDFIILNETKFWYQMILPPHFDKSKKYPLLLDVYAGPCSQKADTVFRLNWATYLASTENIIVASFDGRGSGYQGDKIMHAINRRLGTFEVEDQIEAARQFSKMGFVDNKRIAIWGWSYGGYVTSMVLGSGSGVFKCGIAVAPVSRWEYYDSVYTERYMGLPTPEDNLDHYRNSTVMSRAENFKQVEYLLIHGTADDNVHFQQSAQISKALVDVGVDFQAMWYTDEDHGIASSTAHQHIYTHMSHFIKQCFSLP

For `N#C[C@@H]1C[C@@H]2C[C@@H]2N1C(=O)[C@@H](N)C12CC3CC(CC(O)(C3)C1)C2` [Saxagliptin, saxagliptin, reference compound], the IC50 ([1]; 0.01 to 20 mM, 2 days) was 900 ± 10 µM and the IC50 [2] was 950 ± 10 µM.
With `N#C[C@@H]1CCCCN1C(=O)[C@@H](N)C12CC3CC(CC(O)(C3)C1)C2` [KUgt-102, (S)-1-((S)-2-amino-2-((1r,3R,5R,7S)-3-hydroxyadamantan-1-yl)acetyl)piperidine-2-carbonitrile] the “DPP4 inhibitory activity compared with positive controls vildagliptin and saxagliptin” value (DPP4 (human recombinant)) was “higher inhibitory activity than vildagliptin and saxacliptin”, the DPP4 inhibitory activity (DPP4 (human recombinant)) was “excellent DPP4 inhibitory activity” and the IC50 ([1]; 0.01 to 20 mM, 2 days) was 240 ± 10 µM. The cell viability ([1]; A549, 0.01 to 20 mM, 2 days, FIG. 3) was “inhibited cell viability in a concentration-dependent manner”, the “anticancer activity relative to evogliptin and saxagliptin, based on the same amount” value ([1]; human lung cancer cell lines) was “about three times better anticancer activity” and the “amount needed for effective killing effect compared to evogliptin and saxagliptin” value ([1]; human lung cancer cell lines, relative to evogliptin and saxagliptin) was ≤ 30%. For the same compound, the cell viability ([2]; FIG. 2) was “inhibited cell viability in a concentration-dependent manner” and the IC50 [2] was 330 ± 10 µM.
`CC(C)(C)OC[C@@H]1C(=O)NCCN1C(=O)C[C@H](N)Cc1cc(F)c(F)cc1F` [Evogliptin, evogliptin, reference compound] gave an IC50 ([1]; 0.01 to 20 mM, 2 days) of 750 ± 10 µM and an IC50 [2] of 660 ± 10 µM.
For `N[C@H](C(=O)N(CCO)CCO)C12CC3CC(CC(O)(C3)C1)C2` [KUgt-103, (S)-2-amino-2-((1r,3R,5R,7S)-3-hydroxyadamantan-1-yl)-N,N-bis(2-hydroxyethyl)acetamide], the DPP4 inhibitory activity (DPP4 (human recombinant)) was “excellent DPP4 inhibitory activity”.
